According to paper PMC13494539 (Cell Reports Methods, 2026):

Target: CRL4^CRBN-pomalidomide-SALL4 ZF1-ZF2 (aa 378–453) ternary complex (Homo sapiens, UniProt Q96SW2+Q9UJQ4)
Conditions: presence vs absence of pomalidomide

Sequence of CRL4^CRBN-pomalidomide-SALL4 ZF1-ZF2 (aa 378–453) ternary complex (Q9UJQ4 378-453 limits assumed): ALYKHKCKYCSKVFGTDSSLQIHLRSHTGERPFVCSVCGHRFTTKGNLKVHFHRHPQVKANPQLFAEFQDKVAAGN
Sequence of CRL4^CRBN-pomalidomide-SALL4 ZF1-ZF2 (aa 378–453) ternary complex (Q96SW2 whole entry, the tested form may be a part): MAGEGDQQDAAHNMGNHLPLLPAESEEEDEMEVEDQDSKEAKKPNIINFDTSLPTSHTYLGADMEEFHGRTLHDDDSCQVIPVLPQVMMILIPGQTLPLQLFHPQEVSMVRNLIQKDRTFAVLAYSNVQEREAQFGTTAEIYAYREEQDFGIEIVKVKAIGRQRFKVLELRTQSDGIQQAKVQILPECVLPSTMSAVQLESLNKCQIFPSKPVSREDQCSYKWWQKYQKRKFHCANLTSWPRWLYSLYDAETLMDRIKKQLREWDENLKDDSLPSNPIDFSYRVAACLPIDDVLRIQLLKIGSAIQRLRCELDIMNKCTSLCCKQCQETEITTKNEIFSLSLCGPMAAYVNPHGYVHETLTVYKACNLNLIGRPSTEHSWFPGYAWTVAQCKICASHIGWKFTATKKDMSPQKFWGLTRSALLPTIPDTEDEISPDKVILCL
Sequence of CRL4^CRBN-pomalidomide-SALL4 ZF1-ZF2 (aa 378–453) ternary complex (Q16531 whole entry partner, the tested form may be a part): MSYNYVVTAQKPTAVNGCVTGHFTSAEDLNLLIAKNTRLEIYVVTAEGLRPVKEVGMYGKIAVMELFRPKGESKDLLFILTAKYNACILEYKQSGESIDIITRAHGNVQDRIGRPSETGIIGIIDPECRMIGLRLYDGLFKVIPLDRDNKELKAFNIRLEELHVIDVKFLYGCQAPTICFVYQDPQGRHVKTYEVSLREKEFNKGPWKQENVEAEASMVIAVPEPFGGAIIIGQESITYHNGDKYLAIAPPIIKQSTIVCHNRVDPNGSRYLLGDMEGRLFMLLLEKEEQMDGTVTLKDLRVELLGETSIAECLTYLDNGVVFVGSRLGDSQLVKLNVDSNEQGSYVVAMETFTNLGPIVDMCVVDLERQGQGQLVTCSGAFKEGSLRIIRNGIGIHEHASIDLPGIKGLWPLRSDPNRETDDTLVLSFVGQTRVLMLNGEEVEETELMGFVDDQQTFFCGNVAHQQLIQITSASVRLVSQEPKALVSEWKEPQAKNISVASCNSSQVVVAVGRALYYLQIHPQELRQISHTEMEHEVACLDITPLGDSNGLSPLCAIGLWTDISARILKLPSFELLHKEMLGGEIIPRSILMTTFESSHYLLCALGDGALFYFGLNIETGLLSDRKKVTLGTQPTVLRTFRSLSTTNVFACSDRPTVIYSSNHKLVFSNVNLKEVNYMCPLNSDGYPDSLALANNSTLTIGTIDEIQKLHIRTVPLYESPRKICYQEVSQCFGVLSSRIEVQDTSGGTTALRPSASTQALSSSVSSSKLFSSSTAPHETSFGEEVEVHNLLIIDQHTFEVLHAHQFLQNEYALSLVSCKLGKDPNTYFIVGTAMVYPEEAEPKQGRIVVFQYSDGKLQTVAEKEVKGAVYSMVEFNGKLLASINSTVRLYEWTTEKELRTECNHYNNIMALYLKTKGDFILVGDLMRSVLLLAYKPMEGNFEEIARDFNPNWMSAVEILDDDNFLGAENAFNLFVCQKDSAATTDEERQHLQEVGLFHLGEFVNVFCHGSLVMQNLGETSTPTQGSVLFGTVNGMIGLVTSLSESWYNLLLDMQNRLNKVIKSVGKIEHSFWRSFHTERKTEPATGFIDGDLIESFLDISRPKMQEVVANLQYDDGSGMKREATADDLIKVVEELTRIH
Sequence of CRL4^CRBN-pomalidomide-SALL4 ZF1-ZF2 (aa 378–453) ternary complex (Q13619 whole entry partner, the tested form may be a part): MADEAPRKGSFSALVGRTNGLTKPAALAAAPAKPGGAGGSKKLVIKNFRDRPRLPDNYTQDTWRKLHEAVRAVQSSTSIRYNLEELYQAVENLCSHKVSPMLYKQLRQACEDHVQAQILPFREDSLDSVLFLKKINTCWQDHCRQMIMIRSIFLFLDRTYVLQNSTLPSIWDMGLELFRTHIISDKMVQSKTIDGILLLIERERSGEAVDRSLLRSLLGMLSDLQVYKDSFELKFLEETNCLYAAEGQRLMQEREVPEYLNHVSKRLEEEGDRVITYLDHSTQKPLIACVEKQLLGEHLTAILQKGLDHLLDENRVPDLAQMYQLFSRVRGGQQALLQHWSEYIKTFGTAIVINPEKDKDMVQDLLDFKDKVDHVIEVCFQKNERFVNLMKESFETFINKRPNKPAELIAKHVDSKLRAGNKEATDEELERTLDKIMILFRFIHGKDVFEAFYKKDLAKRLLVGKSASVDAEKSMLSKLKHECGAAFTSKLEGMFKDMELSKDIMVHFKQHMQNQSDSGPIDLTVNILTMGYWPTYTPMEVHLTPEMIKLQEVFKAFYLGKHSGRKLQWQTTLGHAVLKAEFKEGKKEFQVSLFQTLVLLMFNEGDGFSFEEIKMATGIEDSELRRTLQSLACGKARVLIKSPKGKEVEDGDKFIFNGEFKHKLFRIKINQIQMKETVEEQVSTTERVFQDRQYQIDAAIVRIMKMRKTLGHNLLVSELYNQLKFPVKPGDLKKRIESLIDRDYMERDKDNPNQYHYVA
Sequence of CRL4^CRBN-pomalidomide-SALL4 ZF1-ZF2 (aa 378–453) ternary complex (P62877 whole entry partner, the tested form may be a part): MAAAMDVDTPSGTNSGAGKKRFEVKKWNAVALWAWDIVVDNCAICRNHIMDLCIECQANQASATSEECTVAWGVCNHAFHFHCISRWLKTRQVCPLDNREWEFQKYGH
Sequence of CRL4^CRBN-pomalidomide-SALL4 ZF1-ZF2 (aa 378–453) ternary complex (Q15843 1-76 partner limits assumed): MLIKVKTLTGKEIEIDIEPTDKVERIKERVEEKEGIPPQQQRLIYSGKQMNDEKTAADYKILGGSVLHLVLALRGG

SMILES: Nc1cccc2c1C(=O)N(C1CCC(=O)NC1=O)C2=O (stereo not shown) [Pomalidomide]
- enhancement of SALL4 recruitment by CRL4^CRBN in the presence of pomalidomide: more than 10 fold
